Experiments:
Format in all cases: functional, cell-based
HT-29 = experiment: Cytotoxicity against human HT-29 cells after 48 hrs by MTS assay; settings: HT-29, 48 h
HepG2 [1] = experiment: Cytotoxicity against human HepG2 cells after 44 hrs by MTT assay; settings: HepG2, 44 h
A549 = experiment: Cytotoxicity against human A549 cells after 48 hrs by MTS assay; settings: A549, 48 h
K562 = experiment: Cytotoxicity against human K562 cells after 48 to 72 hrs by MTT assay
HeLa = experiment: Cytotoxicity against human HeLa cells by MTT assay
Bel-7402 [2] = experiment: Cytotoxicity against human Bel7402 cells after 44 hrs by MTT assay; settings: Bel-7402, 44 h
BGC-823 = experiment: Cytotoxicity against human BGC823 cells after 48 hrs by MTT assay; settings: BGC-823, 48 h
MCF7 [3] = experiment: Cytotoxicity against human MCF7 cells after 24 hrs by MTT assay; settings: MCF7, 24 h
Bel-7402 [4] = experiment: Cytotoxicity against human Bel7402 cells after 48 hrs by MTT assay; settings: Bel-7402, 48 h
HL-60 [5] = experiment: Cytotoxicity against human HL60 cells after 48 hrs by MTS assay; settings: HL-60, 48 h
HepG2 [6] = experiment: Cytotoxicity against human HepG2 cells after 48 hrs by BrDU-incorporation based ELISA; settings: HepG2, 48 h
Bel-7402 [7] = experiment: Cytotoxicity against human Bel7402 cells by MTT assay
HL-60 [8] = experiment: Cytotoxicity against human HL60 cells after 48 to 72 hrs by MTT assay
MCF7 [9] = experiment: Cytotoxicity against human MCF7 cells after 48 hrs by MTS assay; settings: MCF7, 48 h
HepG2 [10] = experiment: Cytotoxicity against human HepG2 cells by MTT assay

Compound: COc1ccc(-c2nc(Cn3cc(CN4C(=O)c5cccc6cccc(c56)C4=O)nn3)cc3c2[nH]c2ccccc23)cc1OC
- IC50 (HT-29): 7.46 µM

Compound: O=C(O)c1cc(O)c2c(c1)C(=O)c1c(O)cccc1C2=O
- IC50 (HepG2 [1]): 16.3 µM

Compound: Cc1cc2ncn(CCCCn3c4ccccc4c4ccccc43)c2cc1C
- IC50 (A549): 19.4 µM

Compound: COC1=CC(=O)c2c(ccc3cc(O)ccc23)C1=O
- IC50 (K562): 13.8 µM

Compound: CCn1c2cc(OC)ccc2c2ccnc(C)c21
- IC50 (HeLa): 17 µM

Compound: Cc1cc(=O)[nH]c2c1C(=O)c1ccccc1C2=O [MARCANIN A]
- IC50 (Bel-7402 [2]): 9.54 µM

Compound: O=c1c2ccc(O)c(O)c2oc2cccc(O)c12
- IC50 (BGC-823): 10.1 µM

Compound: CCN(CC)CCCC(C)Nc1c2ccc(Cl)cc2nc2ccc(OC)cc12 (stereo not drawn) [QUINACRINE]
- IC50 (MCF7 [3]): 7.5 µM

Compound: CC(C)=CCc1c(O)c(CC=C(C)C)c2oc3c(O)ccc(O)c3c(=O)c2c1O [GARTANIN]
- IC50 (Bel-7402 [4]): 7.78 µM

Compound: Cc1cc2ncn(CCCCCn3c4ccccc4c4ccccc43)c2cc1C
- IC50 (HL-60 [5]): 14.7 µM

Compound: O=c1c2ccc(O)cc2oc2cc(O)ccc12
- IC50 (BGC-823): 12.9 µM

Compound: CC(C)=CCc1c(O)cc2oc3cc(O)ccc3c(=O)c2c1O
- IC50 (BGC-823): 12.1 µM

Compound: c1ccc2nc3ccccc3nc2c1 [PHENAZINE]
- IC50 (HepG2 [6]): 7.8 µM

Compound: CCOC(=O)c1cc2c3ccccc3n(Cc3ccccc3)c2cn1
- IC50 (HeLa): 13 µM

Compound: CCOC(=O)c1cc2c3ccccc3n(Cc3c(F)c(F)c(F)c(F)c3F)c2cn1
- IC50 (Bel-7402 [7]): 9 µM

Compound: c1ccc2c(c1)ncn2CCCCCn1c2ccccc2c2ccccc21
- IC50 (HL-60 [5]): 14.1 µM

Compound: c1ccc2c(c1)ncn2CCCn1c2ccccc2c2ccccc21
- IC50 (HL-60 [5]): 7.91 µM

Compound: COc1cc(O)cc2ccc3cccc(O)c3c12 [MOSCATIN]
- IC50 (HL-60 [8]): 19.2 µM

Compound: CCn1c2ccccc2c2cc(C(=O)OC)ncc21
- IC50 (HeLa): 17 µM

Compound: COc1cc(-c2nc(Cn3cc(CN4C(=O)c5ccccc5C4=O)nn3)cc3c2[nH]c2ccccc23)cc(OC)c1OC
- IC50 (HT-29): 5.79 µM

Compound: c1ccc2c(c1)ncn2CCCCn1c2ccccc2c2ccccc21
- IC50 (MCF7 [9]): 5.06 µM

Compound: COc1ccc2c3ccnc(C)c3n(C)c2c1
- IC50 (HepG2 [10]): 16 µM

Compound: Clc1ccc(-c2nc(Cn3cc(COc4ccc(Br)cc4)nn3)cc3c2[nH]c2ccccc23)cc1
- IC50 (HT-29): 15.6 µM

Reference: ChEMBL document CHEMBL4316584, “All that glitters is not gold: Panning cytotoxic natural products and derivatives with a fused tricyclic backbone by the estimation of their leadlikeness for cancer treatment” (Eur J Med Chem, 2019)
